Measurements as given in US20240246920A1, “TRIAZOLE DERIVATIVES WITH ANTIFUNGAL ACTIVITY” (King's College London, priority 2020, published 2024).
Converted amounts (≈) assume the structure as drawn. Read-outs that look alike come from different tables or passages of the source.

What was measured:
C. glabrata NCPF8018 = experiment: Candida panel MIC, serial dilution in 96-well plates; type: cell-based, Candida glabrata; conditions: Nakaseomyces glabratus, NCPF8018; Table 4, common panel; 24 hours, ≥50% inhibition; read-out: MIC C. glabrata NCPF8018
Description: (§1) The minimum inhibitory concentration of test compounds were determined in a panel of Candida species (see Table 4 below), using the a serial dilution method in 96-well plates using the following protocol.
(§2) Starter cultures of fungal strains to be tested were grown in 3 mL of RPMI 2% glucose media incubated at 37° C. with shaking at 200 rpm overnight. The culture media used was 900 mL H2O; 10.4 g RPMI 1640 (with L-glutamine and a pH indicator but without bicarbonate); 34.5 g MOPS and 18 g glucose. The pH of the media was adjusted to 7.0 with 1 M sodium hydroxide.
(§3) Solutions of the compound to be tested were prepared by dissolving the compound in DMSO and subsequently into media to the desired concentrations. […] The last two rows of each plate were control rows containing the culture media alone and the media plus fungi.
(§4) The fungi starter cultures were diluted 1:10 in water in cuvettes. This was then further diluted to an optical density (OD600) of 0.01 in media. 100 μL of the fungi was added to each well giving a starting concentration of fungus of 0.5-5×10^5/mL. One species of fungus was used on each plate. The plates were then held at 37° C. for 24 hours.
(§5) A plate reader was used to measure growth in each well at OD530 nm and the MIC was determined for each test compound. The MIC is defined as the lowest concentration giving rise to inhibition of ≥50% of that of the drug-free control well containing the fungus and media.

C. auris 8984 = experiment: as above; type: cell-based, Candida auris; conditions: Candidozyma auris, 8984; Table 4, extended panel; 24 hours, ≥50% inhibition; read-out: MIC C. auris 8984
Description: as §1, §2, §3, §4, §5
(§6) The Candida auris strains shown in Table 7 were either taken from the National Collection of Pathogenic Fungi (NCPF) or collected as part of ongoing surveillance studies. The strains were characterised as follows.

C. auris 8977 = experiment: as above; type: cell-based, Candida auris; conditions: Candidozyma auris, 8977; Table 4, extended panel; 24 hours, ≥50% inhibition; read-out: MIC C. auris 8977
Description: as §1, §2, §3, §4, §5, §6

C. auris 8971 = experiment: as above; type: cell-based, Candida auris; conditions: Candidozyma auris, 8971; Table 4, extended panel; 24 hours, ≥50% inhibition; read-out: MIC C. auris 8971
Description: as §1, §2, §3, §4, §5, §6

C. parapsilosis NCPF3209 = experiment: microbe, parasite or virus in culture; type: cell-based, Candida parapsilosis; conditions: Lodderomyces parapsilosis, NCPF3209; Table 4, common panel; 24 hours, ≥50% inhibition; read-out: MIC C. parapsilosis NCPF3209
Description: as §1, §2, §3, §4, §5

C. albicans NCPF3281 = experiment: Candida panel MIC, serial dilution in 96-well plates; type: cell-based, Candida albicans; conditions: Candida albicans, read-out: MIC C. albicans NCPF3281
Description: as §1, §2
(§7) Solutions of the compound to be tested were prepared by dissolving the compound in DMSO and subsequently into media to the desired concentrations. 200 μL of compound solution was then added to the wells of the 96-well plate using a serial dilution method row-by row of the plate to give a compound concentration gradient across the plate of from 128 μg/mL to 0.25 μg/mL. The last two rows of each plate were control rows containing the culture media alone and the media plus fungi.
as §4, §5

C. krusei NCPF3876 = experiment: microbe, parasite or virus in culture; type: cell-based, Candida krusei; conditions: Pichia kudriavzevii, NCPF3876; Table 4, common panel; 24 hours, ≥50% inhibition; read-out: MIC C. krusei NCPF3876
Description: as §1, §2, §3, §4, §5

C. auris TDG1912 = experiment: Candida panel MIC, serial dilution in 96-well plates; type: cell-based; conditions: Candidozyma auris, read-out: MIC C. auris TDG1912
Description: as §1, §2, §7, §4, §5

Candida auris TDG1102 = experiment: as above; type: cell-based; conditions: Candidozyma auris, TDG1102; Table 4, extended panel; 24 hours, ≥50% inhibition; read-out: MIC Candida auris TDG1102
Description: as §1, §2, §7, §4, §5

Candida auris TDG2512 = experiment: as above; type: cell-based; conditions: Candidozyma auris, read-out: MIC Candida auris TDG2512
Description: as §1, §2, §7, §4, §5

C. tropicalis NCPF8760 = experiment: as above; type: cell-based; conditions: NCPF8760, Table 4, common panel, 24 hours, ≥50% inhibition, read-out: MIC C. tropicalis NCPF8760
Description: as §1, §2, §7, §4, §5

Candida auris TDG2506 = experiment: microbe, parasite or virus in culture; type: cell-based; conditions: Candidozyma auris, TDG2506; Table 4, extended panel; 24 hours, ≥50% inhibition; read-out: MIC Candida auris TDG2506
Description: as §1, §2, §3, §4, §5, §6

Candida auris TDG2211 = experiment: microbe, parasite or virus in culture; type: cell-based; conditions: Candidozyma auris, TDG2211; Table 4, extended panel; 24 hours, ≥50% inhibition; read-out: MIC Candida auris TDG2211
Description: as §1, §2, §3, §4, §5, §6

[1] = NCPF3281, Table 4, common panel, 24 hours, ≥50% inhibition
[2] = TDG1912, Table 4, 24 hours, ≥50% inhibition
[3] = TDG2512, Table 4, extended panel, 24 hours, ≥50% inhibition

Row | SMILES | MIC (C. glabrata NCPF8018) [µg/mL] | MIC (C. auris 8984) [µg/mL] | MIC (C. auris 8977) [µg/mL] | MIC (C. auris 8971) [µg/mL] | MIC (C. parapsilosis NCPF3209) [µg/mL] | MIC (C. albicans NCPF3281; [1]) [µg/mL] | MIC (C. krusei NCPF3876) [µg/mL] | MIC (C. auris TDG1912; [2]) [µg/mL] | MIC (Candida auris TDG1102) [µg/mL] | MIC (Candida auris TDG2512; [3]) [µg/mL] | MIC (C. tropicalis NCPF8760) [µg/mL] | MIC (Candida auris TDG2506) [µg/mL] | MIC (Candida auris TDG2211) [µg/mL] | MIC (C. albicans NCPF3281; NCPF3281, 24 h) [µg/mL] | MIC (C. auris TDG1912; TDG1912, 24 h) [µg/mL] | MIC (Candida auris TDG2512; TDG2512, 24 h) [µg/mL]
1 | OC(CN1CCC(Nc2ccc(OCCN3CCCC3)cc2)CC1)(Cn1cncn1)c1ccc(F)cc1F (stereo not shown) [Example 82] | 32 (≈ 60.8 µM) | 4 (≈ 7.6 µM) | 4 to 16 (≈ 7.6 to 30.4 µM) | 2 to 8 (≈ 3.8 to 15.2 µM) | 0.25 (≈ 0.475 µM) | 0.25 (≈ 0.475 µM) | 8 (≈ 15.2 µM) | 4 to 16 (≈ 7.6 to 30.4 µM) | 16 (≈ 30.4 µM) | 1 (≈ 1.9 µM) | > 32 | 4 (≈ 7.6 µM) | 0.5 to 2 (≈ 0.949 to 3.8 µM) |  |  | 
2 | CC1CCN(COc2ccc(NC3CCN(CC(O)(Cn4cncn4)c4ccc(F)cc4F)CC3)cc2)CC1 (stereo not shown) [Example 83] | 8 (≈ 14.8 µM) | 2 (≈ 3.7 µM) | 1 (≈ 1.85 µM) | 1 (≈ 1.85 µM) | 0.06 (≈ 0.111 µM) | 0.06 (≈ 0.111 µM) | 4 (≈ 7.4 µM) | 1 to 4 (≈ 1.85 to 7.4 µM) | 4 (≈ 7.4 µM) | 0.25 (≈ 0.462 µM) | 8 (≈ 14.8 µM) | 0.5 to 2 (≈ 0.925 to 3.7 µM) | 0.25 (≈ 0.462 µM) |  |  | 
3 | Cc1ccc(Oc2ccc(NC3CCN(CC(O)(Cn4cncn4)c4ccc(F)cc4F)CC3)cc2)cc1 (stereo not shown) [Example 85] | 1 (≈ 1.92 µM) | 0.0625 to 0.5 (≈ 0.12 to 0.962 µM) | 0.015 to 0.03 (≈ 0.0289 to 0.0577 µM) | 0.00195 to 0.125 (≈ 0.00375 to 0.241 µM) | 0.00391 to 0.0313 (≈ 0.00753 to 0.0602 µM) | 0.0078 (≈ 0.015 µM) | 0.0156 to 0.25 (≈ 0.03 to 0.481 µM) | 0.0625 (≈ 0.12 µM) | 0.0625 to 0.25 (≈ 0.12 to 0.481 µM) | 0.00391 to 0.0313 (≈ 0.00753 to 0.0602 µM) | 0.25 (≈ 0.481 µM) | 0.0625 to 0.125 (≈ 0.12 to 0.241 µM) | 0.015 to 0.125 (≈ 0.0289 to 0.241 µM) |  |  | 
4 | OC(CN1CCC2(CCC(Nc3ccc(OCCN4CCOCC4)cc3)CC2)C1)(Cn1cncn1)c1ccc(F)cc1F (stereo not shown) [Example 87] | 4 (≈ 6.7 µM) | 0.25 (≈ 0.419 µM) | 0.25 (≈ 0.419 µM) | 0.25 (≈ 0.419 µM) | 0.313 (≈ 0.525 µM) |  | 1 (≈ 1.68 µM) |  | 0.5 (≈ 0.838 µM) |  | 2 (≈ 3.35 µM) | 0.125 (≈ 0.209 µM) | 0.125 (≈ 0.209 µM) | 0.313 (≈ 0.525 µM) | 0.5 (≈ 0.838 µM) | 0.0625 (≈ 0.105 µM)
5 | OC(CN1CCC2(CCN(c3ccc(OCCN4CCOCC4)cc3)CC2)C1)(Cn1cncn1)c1ccc(F)cc1F (stereo not shown) [Example 88] | 4 (≈ 6.86 µM) | 0.25 (≈ 0.429 µM) | 0.125 (≈ 0.215 µM) | 0.25 (≈ 0.429 µM) | 0.0313 (≈ 0.0537 µM) | 0.0313 (≈ 0.0537 µM) | 1 (≈ 1.72 µM) | 0.5 (≈ 0.858 µM) | 0.5 (≈ 0.858 µM) | 0.0625 (≈ 0.107 µM) | 1 (≈ 1.72 µM) | 0.25 (≈ 0.429 µM) | 0.125 (≈ 0.215 µM) |  |  | 
6 | OC(CN1CCCN(c2ccc(OCCN3CCOCC3)cc2)CC1)(Cn1cncn1)c1ccc(F)cc1F (stereo not shown) [Example 89] | 2 (≈ 3.69 µM) | 4 to 8 (≈ 7.37 to 14.7 µM) | 0.25 (≈ 0.461 µM) | 0.25 (≈ 0.461 µM) | 0.0313 (≈ 0.0577 µM) |  | 0.5 (≈ 0.921 µM) |  | 1 (≈ 1.84 µM) |  | 2 (≈ 3.69 µM) | 4 to 8 (≈ 7.37 to 14.7 µM) | 0.5 (≈ 0.921 µM) | 0.156 (≈ 0.287 µM) | 1 (≈ 1.84 µM) | 0.25 (≈ 0.461 µM)
7 | OC(CN1CCCC(Nc2ccc(OCCN3CCOCC3)cc2)CC1)(Cn1cncn1)c1ccc(F)cc1F (stereo not shown) [Example 91] | 16 (≈ 28.7 µM) | 4 (≈ 7.19 µM) | 0.5 (≈ 0.898 µM) | 0.5 (≈ 0.898 µM) | 0.0625 (≈ 0.112 µM) | 0.0156 (≈ 0.0281 µM) | 2 (≈ 3.59 µM) | 4 (≈ 7.19 µM) | 2 (≈ 3.59 µM) | 0.125 (≈ 0.225 µM) | 8 (≈ 14.4 µM) | 4 (≈ 7.19 µM) | 0.25 (≈ 0.449 µM) |  |  | 
